Laboratory results reported in US20170101383A1, “DIAMINOTRIAZINE DERIVATIVES AS HERBICIDES” (BASF SE, priority 2014, published 2017).

Key:
Format in all cases: in vivo
[1] = test system: Abutilon theophrasti; experiment: greenhouse post-emergence treatment, ABUTH; details: scale 0 to 100
From the text: (§1) The seeds of the test plants were sown separately for each species. For the post-emergence treatment, the test plants were first grown to a height of 3 to 15 cm, depending on the plant habit, and only then treated with the active ingredients which had been suspended or emulsified in water. For this purpose, the test plants were either sown directly and grown in the same containers, or they were first grown separately as seedlings and transplanted into the test containers a few days prior to treatment. Depending on the species, the plants were kept at 10-25° C. or 20-35° C., respectively. The test period extended over 2 to 4 weeks. During this time, the plants were tended, and their response to the individual treatments was evaluated. Evaluation was carried out using a scale from 0 to 100. 100 means no emergence of the plants, or complete destruction of at least the aerial moieties, and 0 means no damage, or normal course of growth. A moderate herbicidal activity is given at values of at least 60, a good herbicidal activity is given at values of at least 70, and a very good herbicidal activity is given at values of at least 85. The plants used in the greenhouse experiments were of the following species: [table]

[2] = test system: Amaranthus retroflexus; experiment: greenhouse pre-emergence treatment, AMARE; details: 0.500 kg/ha, scale 0 to 100
From the text: (§2) The seeds of the test plants were sown separately for each species. For the pre-emergence treatment, the active ingredients, which had been suspended or emulsified in water, were applied directly after sowing by means of finely distributing nozzles. The containers were irrigated gently to promote germination and growth and subsequently covered with transparent plastic hoods until the plants had rooted. This cover caused uniform germination of the test plants, unless this had been impaired by the active ingredients. Depending on the species, the plants were kept at 10-25° C. or 20-35° C., respectively. The test period extended over 2 to 4 weeks. During this time, the plants were tended, and their response to the individual treatments was evaluated. Evaluation was carried out using a scale from 0 to 100. 100 means no emergence of the plants, or complete destruction of at least the aerial moieties, and 0 means no damage, or normal course of growth. A moderate herbicidal activity is given at values of at least 60, a good herbicidal activity is given at values of at least 70, and a very good herbicidal activity is given at values of at least 85. The plants used in the greenhouse experiments were of the following species: [table]

[3] = test system: Apera spica-venti; experiment: greenhouse pre-emergence treatment, APESV; details: 0.500 kg/ha, scale 0 to 100
From the text: as §2

[4] = test system: Alopecurus myosuroides; experiment: greenhouse pre-emergence treatment, ALOMY; details: 0.500 kg/ha, scale 0 to 100
From the text: as §2

[5] = test system: Setaria faberi; experiment: greenhouse pre-emergence treatment, SETFA; details: 0.500 kg/ha, scale 0 to 100
From the text: as §2

[6] = test system: Abutilon theophrasti; experiment: greenhouse pre-emergence treatment, ABUTH; details: 0.500 kg/ha, scale 0 to 100
From the text: as §2

[7] = test system: Setaria faberi; experiment: greenhouse post-emergence treatment, SETFA; details: scale 0 to 100
From the text: as §1

[8] = test system: Amaranthus retroflexus; experiment: greenhouse post-emergence treatment, AMARE; details: for pest or weed control at 500 g/ha / pest or weed control at 1000 g/ha: Amaranthus retroflexus, scale 0 to 100, read-out: herbicidal activity against AMARE; for pest or weed control at 500 g/ha / herbicidal activity against AMARE: 0.500 kg/ha; for pest or weed control at 1000 g/ha: 1.000 kg/ha; for herbicidal activity against AMARE: scale 0 to 100
From the text: as §1

[9] = test system: Apera spica-venti; experiment: greenhouse post-emergence treatment, APESV; details: 0.500 kg/ha, scale 0 to 100
From the text: as §1

| SMILES | herbicidal activity against AMARE [2] | herbicidal activity against APESV [3] | herbicidal activity against ALOMY [4] | herbicidal activity against SETFA [5] | herbicidal activity against APESV [9] | further results |
| --- | --- | --- | --- | --- | --- | --- |
| CON(C)c1nc(N)nc(Nc2c(F)c(F)cc(F)c2F)n1 [Example 28] | very good (a very good herbicidal activity is given at values of at least 85) | very good (a very good herbicidal activity is given at values of at least 85) | very good (a very good herbicidal activity is given at values of at least 85) | very good (a very good herbicidal activity is given at values of at least 85) |  | herbicidal activity against ABUTH ([1]; 0.500 kg/ha): very good (a very good herbicidal activity is given at values of at least 85); herbicidal activity against ABUTH [6]: very good (a very good herbicidal activity is given at values of at least 85); herbicidal activity against SETFA ([7]; 0.500 kg/ha): very good (a very good herbicidal activity is given at values of at least 85); pest or weed control at 500 g/ha [8]: ≥ 85% |
| Nc1nc(Nc2c(F)c(F)c(F)c(F)c2F)nc(N2CCCC2)n1 [Example 6] |  | very good (a very good herbicidal activity is given at values of at least 85) | very good (a very good herbicidal activity is given at values of at least 85) | very good (a very good herbicidal activity is given at values of at least 85) |  | herbicidal activity against ABUTH ([1]; 1.000 kg/ha): very good (a very good herbicidal activity is given at values of at least 85); herbicidal activity against SETFA ([7]; 1.000 kg/ha): very good (a very good herbicidal activity is given at values of at least 85); pest or weed control at 1000 g/ha [8]: ≥ 85% |
| CCN(CC)c1nc(N)nc(Nc2c(F)c(F)cc(F)c2F)n1 [Example 36] | good to very good | good to very good |  |  | very good (a very good herbicidal activity is given at values of at least 85) | pest or weed control at 500 g/ha [8]: ≥ 85% |
| Nc1nc(Nc2c(F)c(F)c(F)c(F)c2F)nc(N2CCCCCC2)n1 [Example 7] |  | good to very good | good to very good | good to very good |  | herbicidal activity against ABUTH ([1]; 1.000 kg/ha): very good (a very good herbicidal activity is given at values of at least 85); pest or weed control at 1000 g/ha [8]: ≥ 85% |
| CC1CCCN1c1nc(N)nc(Nc2c(F)c(F)cc(F)c2F)n1 (stereo not drawn) [Example 21] | very good (a very good herbicidal activity is given at values of at least 85) |  | very good (a very good herbicidal activity is given at values of at least 85) | very good (a very good herbicidal activity is given at values of at least 85) |  |  |
| CCN(C)c1nc(N)nc(Nc2c(F)c(F)cc(F)c2F)n1 [Example 22] | very good (a very good herbicidal activity is given at values of at least 85) | very good (a very good herbicidal activity is given at values of at least 85) | very good (a very good herbicidal activity is given at values of at least 85) |  |  |  |
| Nc1nc(Nc2c(F)c(F)c(F)c(F)c2F)nc(N2CCOCC2)n1 [Example 23] | very good (a very good herbicidal activity is given at values of at least 85) | very good (a very good herbicidal activity is given at values of at least 85) |  |  |  | herbicidal activity against ABUTH [6]: very good (a very good herbicidal activity is given at values of at least 85) |
| COC[C@H]1CCCN1c1nc(N)nc(Nc2c(F)c(F)cc(F)c2F)n1 [Example 26] | very good (a very good herbicidal activity is given at values of at least 85) | very good (a very good herbicidal activity is given at values of at least 85) | very good (a very good herbicidal activity is given at values of at least 85) | very good (a very good herbicidal activity is given at values of at least 85) | very good (a very good herbicidal activity is given at values of at least 85) | herbicidal activity against SETFA ([7]; 0.500 kg/ha): very good (a very good herbicidal activity is given at values of at least 85); herbicidal activity against AMARE [8]: very good (a very good herbicidal activity is given at values of at least 85) |
| COCC1CCCN1c1nc(N)nc(Nc2c(F)c(F)cc(F)c2F)n1 (stereo not drawn) [Example 32] | good to very good | good to very good | good to very good | good to very good | very good (a very good herbicidal activity is given at values of at least 85) | herbicidal activity against SETFA ([7]; 0.500 kg/ha): very good (a very good herbicidal activity is given at values of at least 85); pest or weed control at 500 g/ha [8]: ≥ 85% |
| COC[C@@H]1CCCN1c1nc(N)nc(Nc2c(F)c(F)cc(F)c2F)n1 [Example 30] | very good (a very good herbicidal activity is given at values of at least 85) | very good (a very good herbicidal activity is given at values of at least 85) |  |  | very good (a very good herbicidal activity is given at values of at least 85) | herbicidal activity against AMARE [8]: very good (a very good herbicidal activity is given at values of at least 85) |
| CC1CCC(C)N1c1nc(N)nc(Nc2c(F)c(F)c(F)c(F)c2F)n1 (stereo not drawn) [Example 17] | very good (a very good herbicidal activity is given at values of at least 85) | very good (a very good herbicidal activity is given at values of at least 85) |  | very good (a very good herbicidal activity is given at values of at least 85) |  |  |
| COC[C@H]1CCCN1c1nc(N)nc(Nc2c(F)c(F)c(F)c(F)c2F)n1 [Example 25] | good to very good | good to very good | good to very good | good to very good | very good (a very good herbicidal activity is given at values of at least 85) | herbicidal activity against SETFA ([7]; 0.500 kg/ha): very good (a very good herbicidal activity is given at values of at least 85); herbicidal activity against AMARE [8]: very good (a very good herbicidal activity is given at values of at least 85) |
| CN(Cc1ccccc1)c1nc(N)nc(Nc2c(F)c(F)c(F)c(F)c2F)n1 [Example 10] |  |  |  |  |  | herbicidal activity against ABUTH ([1]; 1.000 kg/ha): very good (a very good herbicidal activity is given at values of at least 85); pest or weed control at 1000 g/ha [8]: ≥ 85% |
| CC1CCCN1c1nc(N)nc(Nc2c(F)c(F)c(F)c(F)c2F)n1 (stereo not drawn) [Example 20] | very good (a very good herbicidal activity is given at values of at least 85) | very good (a very good herbicidal activity is given at values of at least 85) |  | very good (a very good herbicidal activity is given at values of at least 85) |  |  |
| COCC1CCCN1c1nc(N)nc(Nc2c(F)c(F)c(F)c(F)c2F)n1 (stereo not drawn) [Example 31] | good to very good | good to very good |  |  | very good (a very good herbicidal activity is given at values of at least 85) |  |
| COC[C@@H]1CCCN1c1nc(N)nc(Nc2c(F)c(F)c(F)c(F)c2F)n1 [Example 29] | very good (a very good herbicidal activity is given at values of at least 85) | very good (a very good herbicidal activity is given at values of at least 85) |  |  | very good (a very good herbicidal activity is given at values of at least 85) | herbicidal activity against AMARE [8]: very good (a very good herbicidal activity is given at values of at least 85) |
